According to patent US7625879B2 (priority 1998, dated 2009):
Structures can show the parent of a compound that is named as a salt.

How the values were obtained:
Tγ9δ2 lymphocytes [1] = test: Stimulation of the proliferation of Tγ9δ2 lymphocytes in a culture; type: cell-based, human; details: effective dose at 50% of the maximum polyclonal lymphocyte amplification effect; 8 days culture with hIL-2; read-out: ED 50% (the source's name)
Method: 20 microliters of the aqueous solution of the compound according to the invention adjusted to the final concentration specified in the test are added to an in vitro culture of 10^6 total T lymphocytes in 1 ml, separated from the blood of a healthy adult human donor and initially containing 1-5% of Tγ9δ2 lymphocytes, in an adequate culture medium (RPMI 1640+10% of inactivated human serum and 50 U/ml of human interleukin-2 (hIL-2)). After culturing for 4 days, 50 U of dIL-2 are added per milliliter of culture medium. After 8 days, the cells are counted, collected, washed with phosphate buffer, and the Tγ9δ2 type cells are detected in the culture by labeling with conventional commercial reagents (fluorescein-labeled monoclonal antibodies) and the proportion thereof determined by flux cytometry analysis. The parameter measured is either the change in the proportion of or the increase in the number of Tγ9δ2 cells in cultures in the presence of the compound according to the invention in comparison with cultures not containing a compound according to the invention.

Tγ9δ2 lymphocytes [2] = test: In vivo bioactivity in the macaque: Tγ9δ2 lymphocytes in the blood; parameters: species or system Macaca fascicularis; details: for % of Tγ9δ2 lymphocytes in the blood in vivo (7 days after injection): animals injected BrHPP only
Method: (§1) These tests are performed on monkeys of the species Macaca fascicularis (males weight 3-4 kg) anaesthetized with 15 mg/kg Zoletil (zolazepam)®/0.01 mg/kg atropine. The batches of BrHPP (in NA^+ form) are subjected to prior purity testing (>99%), quantified and have been tested in accordance with the pyrogenicity tests of Example 12. The animals are injected by rapid intravenous injection (2-5 minutes into the saphenous vein) with 0.1 mg/kg of BrHPP (i.e. 0.3-0.4 mg per animal) diluted in 10 ml of Ringer lactate. Each animal also receives a subcutaneous injection of 90,000 units of interleukin-2 (IL-2). These injections are performed once daily for four days. Control animals receive only the subcutaneous injection of IL-2 once daily for four days.
(§2) The proportion of Tγ9δ2 lymphocytes in total lymphocytes in the various animals is compared in the following three situations: • in the animal's bloodstream, • in a culture of total lymphocytes taken from the animal receiving only BrHPP, • in a culture of total lymphocytes talken from the animal receiving BrHPP+IL-2.

Tγ9δ2 lymphocytes [3] = test: Reactivity ex vivo of Tγ9δ2 lymphocytes from injected macaques in culture; type: cell-based, Macaca fascicularis
Method: as §1, §2

[4] = Toxicity of BrHPP (sodium salt) in mice, intravenous injection; type: in vivo
Method: Eight 30 g mice received an intravenous injection (caudal vein) of 300 μl of PBS buffer containing 1 mg of BrHPP (sodium salt). […] Toxicity is thus less than 12.5% for a dose of 33.4 mg of BrHPP (Na^+) per kilogram of animal body weight.

[5] = Pyrogenicity in rabbits (ISO-10993-11, USP XXIII); type: in vivo
Method: This test is performed in accordance with a protocol specified by standards ISO-10993-11 (1993) and USP XXIII. […] Temperature is taken every 30 minutes for 3 hours starting 30 minutes after the injection.

human Tγ9δ2 lymphocytes = details: cited from earlier work
Tγ9δ2 lymphocyte clone = test: Stimulation of induced cytotoxicity of a Tγ9δ2 lymphocyte clone
[6] = animals injected BrHPP only, twice (1 injection + 1 booster)

3-(bromomethyl)-3-butanol-1-yl diphosphate [BrHPP]
EC50 (Tγ9δ2 lymphocytes [1]): 10 nM
% of Tγ9δ2 lymphocytes in the blood in vivo (7 days after injection) (Tγ9δ2 lymphocytes [2]; i.v. 0.1 mg/kg, Na+ form): ~1%
% of Tγ9δ2 lymphocytes in the blood in vivo (7 days after injection) (Tγ9δ2 lymphocytes [2]; twice (1 injection + 1 booster)): ~1%
effect on the monkey's Tγ9δ2 lymphocytes in vivo (Tγ9δ2 lymphocytes [2]; intravenous injection of BrHPP in the presence of subcutaneous IL-2): preactivates these same cells and brings about the growth thereof in vivo
effect on the monkey's Tγ9δ2 lymphocytes in vivo (Tγ9δ2 lymphocytes [2]; single or repeated intravenous injection of BrHPP alone): preactivates the monkey's Tγ9δ2 lymphocytes, but does not stimulate the growth thereof in the animal
Reactivity ex vivo of Tγ9δ2 lymphocytes (% after 10 days' culturing in vitro), Amplification by 40 nM BrHPP (Tγ9δ2 lymphocytes [3]; animals injected BrHPP + IL-2): 10%
Reactivity ex vivo of Tγ9δ2 lymphocytes (% after 10 days' culturing in vitro), Amplification by 40 nM BrHPP + IL-2 (Tγ9δ2 lymphocytes [3]; animals injected BrHPP + IL-2): 50.0%
Reactivity ex vivo of Tγ9δ2 lymphocytes (% after 10 days' culturing in vitro), Amplification by 40 nM BrHPP (Tγ9δ2 lymphocytes [3]; animals injected BrHPP only): 1%
Reactivity ex vivo of Tγ9δ2 lymphocytes (% after 10 days' culturing in vitro), Amplification by 40 nM BrHPP (Tγ9δ2 lymphocytes [3]; [6]): 1%
Reactivity ex vivo of Tγ9δ2 lymphocytes (% after 10 days' culturing in vitro), Amplification by 40 nM BrHPP + IL-2 (Tγ9δ2 lymphocytes [3]; [6]): 40.2%

3-(chloromethyl)-3-butanol-1-yl diphosphate [CIHPP]
EC50 (Tγ9δ2 lymphocytes [1]): 100 nM

3-(iodomethyl)-3-butanol-1-yl diphosphate [IHPP]
EC50 (Tγ9δ2 lymphocytes [1]): 3 nM

CC(O)(CBr)CCOP(=O)(O)OP(=O)(O)O (stereo not shown) [BrHPP (sodium salt), 3-(bromomethyl)-3-butanol-1-yl diphosphate]
Toxicity ([4]; dose of 33.4 mg per kilogram of animal body weight, i.v.): less than 12.5%
signs of shock or pyrogenicity ([4]; eight 30 g mice, i.v. caudal vein, 1 mg in 300 μl PBS): No sign of shock or pyrogenicity
variation in the weight of the mice ([4]; i.v. 1 mg per 30 g mouse, during the study): no significant variation
mice still alive after 30 days ([4]; of eight mice, i.v. 1 mg per 30 g mouse): 8 mice
side-effect on injection ([5]; 400 μg/ml solution, i.v.): muscle tremors
reaction to the injection ([5]; solution diluted 1:40 to 10 μg/ml, one rabbit, in 19 minutes): no reaction to the injection
febrile reaction (increase in temperature greater than 0.5° C.) ([5]; three rabbits, i.v. 400 μg/ml, 10 ml per kilogram, 3 hours): Only one rabbit exhibited an increase in temperature of greater than 0.5 °C

CC(O)(CBr)CCOP(=O)(O)OP(=O)(O)OP(=O)(O)O (stereo not shown) [BrHPPP, 3-(bromomethyl)-3-butanol-1-yl triphosphate]
EC50 (Tγ9δ2 lymphocytes [1]): 120 nM

CC(O)(CI)CCOP(=O)(O)OP(=O)(O)OP(=O)(O)O (stereo not shown) [IHPPP, 3-(iodomethyl)-3-butanol-1-yl triphosphate]
EC50 (Tγ9δ2 lymphocytes [1]): 70 nM

CC(O)(CBr)CCOP(=O)(O)OP(=O)(O)OP(=O)(O)OCCC(C)(O)CBr (stereo not drawn) [di-BrHTP, α,γ di-[3-(bromomethyl)-3-butanol-1-yl] triphosphate]
EC50 (Tγ9δ2 lymphocytes [1]): 3000 nM

isopentenyl pyrophosphate [IPP]
EC50 (Tγ9δ2 lymphocytes [1]): 3000 nM
minimum active concentration (no activity demonstrated below) (human Tγ9δ2 lymphocytes; best results obtained, prior art compounds): ≥ 3 µM
minimum active concentration relative to natural phosphoantigens (human Tγ9δ2 lymphocytes): ~1000 times higher
concentration at which active in induced cytotoxicity test (Tγ9δ2 lymphocyte clone; Tγ9δ2 lymphocyte clone, decreasing concentrations, FIG. 2): ~3000 nM
active concentration relative to the compounds according to the invention (Tγ9δ2 lymphocyte clone; induced cytotoxicity test): ~300 times higher

α,γ di-[3-(iodomethyl)-3-butanol-1-yl] triphosphate [di-IHTP]
EC50 (Tγ9δ2 lymphocytes [1]): 7000 nM
